Where “and” joins values, the source holds several entries; their conditions need not be identical. Identical values can stand only once. Entries after “also recorded” stand apart in the source; their conditions may differ.
How the values were obtained:
[1] = molecular target: T1, CK1α (Homo sapiens, UniProt P48729); experiment: Western blot of CK1α in UISO cells; format: cell-based; details: lenalidomide 10 μM, 24 hours
From the text: Of note, UISO has less MDM2 and MDM4 proteins than MKL-1.

[2] = test system: MDM4 binding to p53; experiment: Immunoprecipitation of MDM4, p53 and CK1α from MKL-1 lysates; format: cell-based; details: MKL-1 cells; nutlin-3 5 μM, lenalidomide 10 μM, 40 hours
Procedure: (§1) Confluent cultures of cells were washed with ice-cold phosphate-buffered saline (PBS) and resuspended in EBC lysis buffer (50 mM Tris, pH 8.0, 150 mM NaCl, 0.5% NP-40, 1:10,000-mercaptoethanol, 0.5 mM EDTA) for 10 min on ice and then centrifuged. Clarified lysates were incubated overnight with antibodies and magnetic protein A/G beads (PureProteome magnetic beads, EMD Millipore). […] Mouse monoclonal antibodies Ab3 and Ab5 against MCV T antigens were generated against MCV large T antigen residues 1 to 260 and produced as a glutathione S-transferase (GST) fusion protein in bacteria (17). Quantitative western blotting was performed using the Odyssey near-infrared system (Li-Cor Biotechnology).

[3] = test system: MKL-1 MCC cells; experiment: XTT cell viability assay and synergy testing, MKL-1 cells; format: cell-based; details: 96 hours; for Response-rep1 / Response-rep2: HDM201 0 nM; for relative viability (XTT), untreated = 1: combinations with a fixed amount of Lenalidomide (5 uM), replicate columns; for Response: relative viability vs untreated
Procedure: Cell viability assays were performed using Cell Proliferation Kit II (XTT) (Roche) according to the manufacturer's instructions and BH3 profiling was described in Pallis et al. (36). Synergy testing was performed using Compusyn and Synergyfinder (28, 29).
The XTT assay was performed to determine the relative viability (% response) normalized to untreated cells.

[4] = test system: p53; experiment: Western blot of p53 activation in MKL-1 cells; format: cell-based; details: 24-40 hours
Procedure: as §1

[5] = molecular target: T1, CK1α; experiment: Western blot of CK1α protein levels in MKL-1 cells; format: cell-based; details: IMiD 10 μM
Procedure: Confluent cultures of cells were washed with ice-cold phosphate-buffered saline (PBS) and resuspended in EBC lysis buffer (50 mM Tris, pH 8.0, 150 mM NaCl, 0.5% NP-40, 1:10,000-mercaptoethanol, 0.5 mM EDTA) for 10 min on ice and then centrifuged. Clarified lysates were incubated overnight with antibodies and magnetic protein A/G beads (PureProteome magnetic beads, EMD Millipore). […] Quantitative western blotting was performed using the Odyssey near-infrared system (Li-Cor Biotechnology).

[6] = test system: MKL-1 MCC xenografts; experiment: Xenograft efficacy study; details: individual animals, oral daily, HDM201 40 mg/kg and/or lenalidomide 50 mg/kg; for Tumor Volume Change, Abs Ch = T − T0: tumor volumes in mm3
From the text: The study was terminated when the tumor volume reached the maximum permissible size of 2000 mm3.

T1 sequence (P48729 whole entry): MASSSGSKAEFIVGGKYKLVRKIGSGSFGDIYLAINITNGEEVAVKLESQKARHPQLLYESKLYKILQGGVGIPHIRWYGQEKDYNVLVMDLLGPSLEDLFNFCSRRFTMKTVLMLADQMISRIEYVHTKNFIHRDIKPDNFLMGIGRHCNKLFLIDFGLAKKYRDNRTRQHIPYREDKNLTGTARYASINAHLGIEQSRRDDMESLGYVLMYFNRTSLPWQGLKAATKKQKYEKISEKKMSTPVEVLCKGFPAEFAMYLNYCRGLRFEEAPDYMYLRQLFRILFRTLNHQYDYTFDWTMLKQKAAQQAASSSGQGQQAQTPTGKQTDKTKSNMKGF

In the case of Nc1cccc2c1CN(C1CCC(=O)NC1=O)C2=O (racemic) [Lenalidomide, (RS)-3-(7-Amino-3-oxo-1H-isoindol-2-yl)piperidin-2,6-dion], the CK1α levels [1] is reported as “depletes CK1α”, the CK1α levels ([1]; listed as lenalidomide) is reported as “decreased the CK1α levels” and the “MDM4 binding to p53 (co-immunoprecipitation)” value [2] is reported as “reduces MDM4 binding to p53”. It also gave a Response-rep1 ([3]; Lenalidomide 5000 nM) of 98.9539%, a Response-rep2 ([3]; Lenalidomide 5000 nM) of 97.73% and a Response-rep1 ([3]; Lenalidomide 10000 nM) of 83.3296%. The Response-rep2 ([3]; Lenalidomide 10000 nM) was 76.26%, the Response-rep1 ([3]; Lenalidomide 15000 nM) was 69.78% and the Response-rep2 ([3]; Lenalidomide 15000 nM) was 67.82%. For the same molecule, the Response-rep1 ([3]; Lenalidomide 18000 nM) was 25.1812%, the Response-rep2 ([3]; Lenalidomide 18000 nM) was 49.26% and the “relative viability (XTT), untreated = 1” value ([3]; Nutlin-3 or RG7388 level 25 (unit not given)) was 1.143 and 0.8845 and 1.022. The “relative viability (XTT), untreated = 1” value ([3]; Nutlin-3 or RG7388 level 50 (unit not given)) was 1.089 and 0.9384 and 1.081, the “relative viability (XTT), untreated = 1” value ([3]; Nutlin-3 or RG7388 level 75 (unit not given)) was 1.027 and 1.061 and 1.086 and the “relative viability (XTT), untreated = 1” value ([3]; Nutlin-3 or RG7388 level 90 (unit not given)) was 1.011 and 0.945 and 0.9521. It also gave a Response ([3]; Lenalidomide 5000 nM alone) of 104.85%, a Response ([3]; Lenalidomide 10000 nM alone) of 105.06% and a Response ([3]; Lenalidomide 15000 nM alone) of 107.06%. The Response ([3]; Lenalidomide 18000 nM alone) was 100.64%, the “p53 activation (p53, P-p53, Ac-p53, p21, PUMA levels)” value [4] was “modest positive effect on p53 levels” and the CK1α protein levels [5] was “reduces CK1α protein rapidly; also recorded: decreases CK1α protein levels”. The CK1α protein levels ([5]; listed as lenalidomide) was “levels rapidly decreased”, the “Tumor Volume Change, % Ch = (T − T0)/T0” value ([6]; day 0) was 0.00% and the “Tumor Volume Change, Abs Ch = T − T0” value ([6]; day 0) was 0.00. The “Tumor Volume Change, % Ch = (T − T0)/T0” value ([6]; day 4) was 74.88% and 101.33% and 102.10% and 99.96% and 150.37% and 52.58% and 63.66% and 71.12%, the “Tumor Volume Change, Abs Ch = T − T0” value ([6]; day 4) was 144.53 and 151.67 and 182.72 and 171.42 and 196.53 and 107.98 and 82.85 and 113.80 and the “Tumor Volume Change, % Ch = (T − T0)/T0” value ([6]; day 7) was 172.14% and 170.30% and 232.85% and 199.00% and 277.21% and 108.30% and 219.88% and 209.85%. The “Tumor Volume Change, Abs Ch = T − T0” value ([6]; day 7) was 332.29 and 254.90 and 416.69 and 341.29 and 362.30 and 222.38 and 286.16 and 335.77, the “Tumor Volume Change, % Ch = (T − T0)/T0” value ([6]; day 11) was 532.35% and 513.08% and 584.49% and 475.00% and 680.10% and 321.83% and 431.10% and 501.46% and the “Tumor Volume Change, Abs Ch = T − T0” value ([6]; day 11) was 1027.58 and 768.00 and 1045.97 and 814.62 and 888.86 and 660.89 and 561.06 and 802.36. For the same molecule, the “Tumor Volume Change, % Ch = (T − T0)/T0” value ([6]; day 14) was 811.07% and 861.89% and 936.62% and 702.42% and 1182.50% and 538.29% and 804.69% and 779.36%, the “Tumor Volume Change, Abs Ch = T − T0” value ([6]; day 14) was 1565.59 and 1290.11 and 1676.13 and 1204.65 and 1545.48 and 1105.37 and 1047.26 and 1246.99 and the “Tumor Volume Change, % Ch = (T − T0)/T0” value ([6]; day 18) was 1406.04% and 1123.01% and 1595.67% and 1146.29% and 1544.08% and 774.41% and 1719.65% and 1318.82%. For the same molecule, the “Tumor Volume Change, Abs Ch = T − T0” value ([6]; day 18) was 2714.05 and 1680.96 and 2855.54 and 1965.88 and 2018.05 and 1590.25 and 2238.02 and 2110.15.

Reference: US12115151B2, “Method of treatment of p53 WT tumors” (Dana-Farber Cancer Institute, Inc., priority 2018, dated 2024)
